# Key:
# Assay in all cases: Kinase selectivity panel
# Assay type in all cases: biochemical
# Conditions in all cases: read-out: Inhibition(%) @ 1 µM RK-019
# GRK7(h) = molecular target: T1, GRK7(h) (Homo sapiens, UniProt Q8WTQ7)
# T1 construct: purchased Eurofins Discovery Services (KinaseProfiler)
# Outline: (§1)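 Inhibition ratio was measured at 1 µM test compound in an ATP-site competition binding format across 422 recombinant human kinases.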
# GCK(h) = molecular target: T2, GCK(h) (Homo sapiens, UniProt Q12851)
# T2 construct: purchased Eurofins Discovery Services (KinaseProfiler)
# Outline: as §1
# SIK(h) = molecular target: T3, SIK(h) (Homo sapiens, UniProt P57059)
# T3 construct: purchased Eurofins Discovery Services (KinaseProfiler)
# Outline: as §1
# CaMKK2(h) = molecular target: T4, CaMKK2(h) (Homo sapiens, UniProt Q96RR4)
# T4 construct: purchased Eurofins Discovery Services (KinaseProfiler)
# Outline: as §1
# JAK2(h) = molecular target: T5, JAK2(h) (Homo sapiens, UniProt O60674)
# T5 construct: purchased Eurofins Discovery Services (KinaseProfiler)
# Outline: as §1
# EphB2(h) = molecular target: T6, EphB2(h) (Homo sapiens, UniProt P29323)
# T6 construct: purchased Eurofins Discovery Services (KinaseProfiler)
# Outline: as §1
# DCAMKL2(h) = molecular target: T7, DCAMKL2(h) (Homo sapiens, UniProt Q8N568)
# T7 construct: purchased Eurofins Discovery Services (KinaseProfiler)
# Outline: as §1
# TAO1(h) = molecular target: T8, TAO1(h) (Homo sapiens, UniProt Q7L7X3)
# T8 construct: purchased Eurofins Discovery Services (KinaseProfiler)
# Outline: as §1
# PAK6(h) = molecular target: T9, PAK6(h) (Homo sapiens, UniProt Q9NQU5)
# T9 construct: purchased Eurofins Discovery Services (KinaseProfiler)
# Outline: as §1
# HIPK3(h) = molecular target: T10, HIPK3(h) (Homo sapiens, UniProt Q9H422)
# T10 construct: purchased Eurofins Discovery Services (KinaseProfiler)
# Outline: as §1
# PRP4(h) = molecular target: T11, PRP4(h) (Homo sapiens, UniProt Q13523)
# T11 construct: purchased Eurofins Discovery Services (KinaseProfiler)
# Outline: as §1
# PEK(h) = molecular target: T12, PEK(h) (Homo sapiens, UniProt Q9NZJ5)
# T12 construct: purchased Eurofins Discovery Services (KinaseProfiler)
# Outline: as §1
# MRCKγ(h) = molecular target: T13, MRCKγ(h) (Homo sapiens, UniProt Q6DT37)
# T13 construct: purchased Eurofins Discovery Services (KinaseProfiler)
# T13 sequence (Q6DT37 whole entry): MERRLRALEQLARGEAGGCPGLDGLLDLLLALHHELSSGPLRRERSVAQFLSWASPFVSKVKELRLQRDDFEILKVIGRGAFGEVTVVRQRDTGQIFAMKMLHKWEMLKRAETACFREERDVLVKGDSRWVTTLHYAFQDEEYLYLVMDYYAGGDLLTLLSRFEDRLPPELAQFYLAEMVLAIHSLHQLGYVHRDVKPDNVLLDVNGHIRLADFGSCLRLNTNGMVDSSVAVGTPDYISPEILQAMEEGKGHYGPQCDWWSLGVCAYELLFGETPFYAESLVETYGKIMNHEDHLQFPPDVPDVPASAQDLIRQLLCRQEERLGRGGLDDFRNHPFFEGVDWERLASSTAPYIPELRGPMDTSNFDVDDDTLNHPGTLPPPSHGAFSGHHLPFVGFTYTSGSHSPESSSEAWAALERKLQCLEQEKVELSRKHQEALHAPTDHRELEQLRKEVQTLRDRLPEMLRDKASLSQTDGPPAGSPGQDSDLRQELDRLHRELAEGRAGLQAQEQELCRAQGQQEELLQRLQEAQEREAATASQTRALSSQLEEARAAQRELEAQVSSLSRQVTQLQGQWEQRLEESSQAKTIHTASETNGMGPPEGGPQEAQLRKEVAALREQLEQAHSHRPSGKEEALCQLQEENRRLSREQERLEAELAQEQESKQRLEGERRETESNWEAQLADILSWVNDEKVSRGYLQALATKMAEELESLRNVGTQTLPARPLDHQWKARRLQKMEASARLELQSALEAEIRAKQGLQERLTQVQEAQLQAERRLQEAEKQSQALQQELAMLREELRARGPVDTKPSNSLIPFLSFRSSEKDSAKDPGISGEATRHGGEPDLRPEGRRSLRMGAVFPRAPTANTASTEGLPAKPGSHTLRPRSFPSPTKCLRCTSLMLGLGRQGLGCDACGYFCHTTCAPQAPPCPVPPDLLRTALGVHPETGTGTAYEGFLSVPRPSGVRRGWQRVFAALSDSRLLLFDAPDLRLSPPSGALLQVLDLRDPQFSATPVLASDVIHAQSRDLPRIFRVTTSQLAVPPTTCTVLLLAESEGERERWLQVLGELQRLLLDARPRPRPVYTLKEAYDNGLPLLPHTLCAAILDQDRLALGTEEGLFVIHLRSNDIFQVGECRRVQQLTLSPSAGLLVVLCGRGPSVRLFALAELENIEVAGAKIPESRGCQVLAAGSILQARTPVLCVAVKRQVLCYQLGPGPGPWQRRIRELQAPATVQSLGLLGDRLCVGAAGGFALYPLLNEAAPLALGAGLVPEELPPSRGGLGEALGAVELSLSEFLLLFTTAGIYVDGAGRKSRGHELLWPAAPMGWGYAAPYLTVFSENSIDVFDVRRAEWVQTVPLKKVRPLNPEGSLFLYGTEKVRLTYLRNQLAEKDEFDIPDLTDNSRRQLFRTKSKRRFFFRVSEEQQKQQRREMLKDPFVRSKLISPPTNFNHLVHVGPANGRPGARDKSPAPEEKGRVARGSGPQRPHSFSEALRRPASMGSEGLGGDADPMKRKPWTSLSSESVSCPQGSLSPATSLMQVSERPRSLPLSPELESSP
# Outline: as §1
# CRIK(h) = molecular target: T14, CRIK(h) (Homo sapiens, UniProt O14578)
# T14 construct: purchased Eurofins Discovery Services (KinaseProfiler)
# Outline: as §1
# SAPK2a(h) = molecular target: T15, SAPK2a(h) (Homo sapiens, UniProt Q16539)
# T15 construct: purchased Eurofins Discovery Services (KinaseProfiler)
# Outline: as §1
# CDK3/cyclinE(h) = molecular target: T16, CDK3/cyclinE(h) (Homo sapiens, UniProt Q00526)
# T16 construct: purchased Eurofins Discovery Services (KinaseProfiler)
# Outline: as §1
# NUAK2(h) = molecular target: T17, NUAK2(h) (Homo sapiens, UniProt Q9H093)
# T17 construct: purchased Eurofins Discovery Services (KinaseProfiler)
# Outline: as §1
# PAK5(h) = molecular target: T18, PAK5(h) (Homo sapiens, UniProt Q9P286)
# T18 construct: purchased Eurofins Discovery Services (KinaseProfiler)
# Outline: as §1
# ULK3(h) = molecular target: T19, ULK3(h) (Homo sapiens, UniProt Q6PHR2)
# T19 construct: purchased Eurofins Discovery Services (KinaseProfiler)
# T19 sequence (Q6PHR2 whole entry): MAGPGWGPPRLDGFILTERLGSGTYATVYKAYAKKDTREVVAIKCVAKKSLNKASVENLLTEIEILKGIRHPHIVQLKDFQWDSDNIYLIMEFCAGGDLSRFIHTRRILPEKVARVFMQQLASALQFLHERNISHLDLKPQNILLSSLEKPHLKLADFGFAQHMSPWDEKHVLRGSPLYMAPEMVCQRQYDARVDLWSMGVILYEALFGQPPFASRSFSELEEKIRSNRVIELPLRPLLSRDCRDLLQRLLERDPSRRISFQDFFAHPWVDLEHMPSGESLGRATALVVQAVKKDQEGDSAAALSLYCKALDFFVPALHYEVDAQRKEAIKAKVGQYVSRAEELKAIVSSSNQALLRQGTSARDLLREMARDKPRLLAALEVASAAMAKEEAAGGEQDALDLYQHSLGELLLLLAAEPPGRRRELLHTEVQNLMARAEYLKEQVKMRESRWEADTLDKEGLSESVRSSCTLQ
# Outline: as §1
# Fes(h) = molecular target: T20, Fes(h) (Homo sapiens, UniProt P07332)
# T20 construct: purchased Eurofins Discovery Services (KinaseProfiler)
# Outline: as §1
# EphB3(h) = molecular target: T21, EphB3(h) (Homo sapiens, UniProt P54753)
# T21 construct: purchased Eurofins Discovery Services (KinaseProfiler)
# Outline: as §1
# NEK9(h) = molecular target: T22, NEK9(h) (Homo sapiens, UniProt Q8TD19)
# T22 construct: purchased Eurofins Discovery Services (KinaseProfiler)
# Outline: as §1
# TAF1L(h) = molecular target: T23, TAF1L(h) (Homo sapiens, UniProt Q8IZX4)
# T23 construct: purchased Eurofins Discovery Services (KinaseProfiler)
# Outline: as §1
# PRKG2(h) = molecular target: T24, PRKG2(h) (Homo sapiens, UniProt Q13237)
# T24 construct: purchased Eurofins Discovery Services (KinaseProfiler)
# T24 sequence (Q13237 whole entry): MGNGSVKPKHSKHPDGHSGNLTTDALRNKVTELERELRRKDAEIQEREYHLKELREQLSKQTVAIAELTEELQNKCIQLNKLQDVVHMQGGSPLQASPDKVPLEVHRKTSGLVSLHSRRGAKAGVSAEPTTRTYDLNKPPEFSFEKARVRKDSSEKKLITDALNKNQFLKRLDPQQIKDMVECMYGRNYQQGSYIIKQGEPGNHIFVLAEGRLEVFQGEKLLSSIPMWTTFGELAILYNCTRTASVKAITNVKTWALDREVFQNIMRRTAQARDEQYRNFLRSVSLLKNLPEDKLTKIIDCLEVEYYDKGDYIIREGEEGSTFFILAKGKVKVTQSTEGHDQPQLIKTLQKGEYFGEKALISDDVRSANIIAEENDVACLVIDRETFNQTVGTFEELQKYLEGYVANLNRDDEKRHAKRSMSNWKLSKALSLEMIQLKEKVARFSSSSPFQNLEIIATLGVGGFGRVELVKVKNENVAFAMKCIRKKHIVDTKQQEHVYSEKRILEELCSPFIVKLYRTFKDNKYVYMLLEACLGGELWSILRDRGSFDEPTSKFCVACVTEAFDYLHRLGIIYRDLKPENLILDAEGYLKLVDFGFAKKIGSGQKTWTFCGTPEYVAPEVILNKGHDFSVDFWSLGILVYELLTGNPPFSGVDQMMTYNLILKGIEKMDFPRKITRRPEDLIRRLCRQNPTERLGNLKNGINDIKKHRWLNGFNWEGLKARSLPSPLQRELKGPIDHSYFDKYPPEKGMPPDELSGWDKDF
# Outline: as §1
# Ret(V804M)(h) = molecular target: T25, Ret(V804M)(h) (Homo sapiens, UniProt P07949, V804M)
# T25 construct: purchased Eurofins Discovery Services (KinaseProfiler)
# T25 sequence (P07949 29-1114 V804M): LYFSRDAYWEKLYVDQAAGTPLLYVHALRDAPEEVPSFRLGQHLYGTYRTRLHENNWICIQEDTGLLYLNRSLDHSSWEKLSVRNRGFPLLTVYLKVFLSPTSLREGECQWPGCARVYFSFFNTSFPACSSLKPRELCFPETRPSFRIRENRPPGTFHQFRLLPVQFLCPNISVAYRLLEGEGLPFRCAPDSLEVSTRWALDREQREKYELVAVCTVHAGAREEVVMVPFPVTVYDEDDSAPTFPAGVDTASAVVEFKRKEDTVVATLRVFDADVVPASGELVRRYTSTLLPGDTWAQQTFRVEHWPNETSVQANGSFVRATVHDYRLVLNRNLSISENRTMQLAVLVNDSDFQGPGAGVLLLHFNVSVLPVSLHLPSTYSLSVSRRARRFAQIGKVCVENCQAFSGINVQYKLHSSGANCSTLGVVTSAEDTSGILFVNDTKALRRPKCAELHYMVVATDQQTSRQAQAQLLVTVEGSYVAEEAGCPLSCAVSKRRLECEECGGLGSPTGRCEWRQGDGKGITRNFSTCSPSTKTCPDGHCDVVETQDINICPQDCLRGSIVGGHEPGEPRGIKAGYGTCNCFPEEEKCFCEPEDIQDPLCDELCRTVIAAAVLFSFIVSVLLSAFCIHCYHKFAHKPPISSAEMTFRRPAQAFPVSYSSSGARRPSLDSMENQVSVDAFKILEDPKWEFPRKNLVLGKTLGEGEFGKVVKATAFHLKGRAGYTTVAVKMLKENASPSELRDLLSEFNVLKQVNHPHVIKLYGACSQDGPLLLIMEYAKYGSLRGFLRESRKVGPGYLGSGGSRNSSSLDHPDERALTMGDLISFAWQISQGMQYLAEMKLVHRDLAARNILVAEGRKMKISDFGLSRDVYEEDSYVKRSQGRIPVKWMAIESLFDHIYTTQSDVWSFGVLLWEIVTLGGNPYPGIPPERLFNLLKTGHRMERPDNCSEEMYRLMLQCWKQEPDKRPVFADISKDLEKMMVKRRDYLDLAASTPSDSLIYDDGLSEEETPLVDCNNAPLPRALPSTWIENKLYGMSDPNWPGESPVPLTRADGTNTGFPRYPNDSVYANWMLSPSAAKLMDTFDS
# Outline: as §1
# CLIK1(h) = molecular target: T26, CLIK1(h) (Homo sapiens, UniProt Q8TDR2)
# T26 construct: purchased Eurofins Discovery Services (KinaseProfiler)
# Outline: as §1
# DRAK2(h) = molecular target: T27, DRAK2(h) (Homo sapiens, UniProt O94768)
# T27 construct: purchased Eurofins Discovery Services (KinaseProfiler)
# Outline: as §1
# GRK5(h) = molecular target: T28, GRK5(h) (Homo sapiens, UniProt P34947)
# T28 construct: purchased Eurofins Discovery Services (KinaseProfiler)
# T28 sequence (P34947 whole entry): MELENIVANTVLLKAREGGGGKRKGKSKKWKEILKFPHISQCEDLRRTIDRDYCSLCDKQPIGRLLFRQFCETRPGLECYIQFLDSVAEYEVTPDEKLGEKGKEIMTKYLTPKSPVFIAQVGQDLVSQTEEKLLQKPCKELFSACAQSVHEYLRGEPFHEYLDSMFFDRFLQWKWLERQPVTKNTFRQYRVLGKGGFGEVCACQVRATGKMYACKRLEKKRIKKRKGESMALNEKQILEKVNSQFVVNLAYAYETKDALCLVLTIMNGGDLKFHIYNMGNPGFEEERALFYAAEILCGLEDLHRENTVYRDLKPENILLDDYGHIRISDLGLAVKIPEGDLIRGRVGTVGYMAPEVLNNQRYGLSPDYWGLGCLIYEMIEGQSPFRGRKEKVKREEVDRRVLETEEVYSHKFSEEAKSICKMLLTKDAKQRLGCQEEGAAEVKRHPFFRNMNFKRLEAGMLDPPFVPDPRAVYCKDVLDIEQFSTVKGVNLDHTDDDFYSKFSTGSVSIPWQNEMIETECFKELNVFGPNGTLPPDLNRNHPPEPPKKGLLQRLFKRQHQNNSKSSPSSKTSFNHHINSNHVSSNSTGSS
# Outline: as §1
# Met(Y1248H)(h) = molecular target: T29, Met(Y1248H)(h) (Homo sapiens, UniProt P08581, Y1230H)
# T29 construct: purchased Eurofins Discovery Services (KinaseProfiler)
# Outline: as §1
# PKA(h) = molecular target: T30, PKA(h) (Homo sapiens, UniProt P17612)
# T30 construct: purchased Eurofins Discovery Services (KinaseProfiler)
# Outline: as §1
# PASK(h) = molecular target: T31, PASK(h) (Homo sapiens, UniProt Q96RG2)
# T31 construct: purchased Eurofins Discovery Services (KinaseProfiler)
# Outline: as §1
# CK1γ1(h) = molecular target: T32, CK1γ1(h) (Homo sapiens, UniProt Q9HCP0)
# T32 construct: purchased Eurofins Discovery Services (KinaseProfiler)
# Outline: as §1
# mTOR/FKBP12(h) = molecular target: T33, mTOR/FKBP12(h) (Homo sapiens, UniProt P42345)
# T33 construct: purchased Eurofins Discovery Services (KinaseProfiler)
# Outline: as §1
# CDK18/cyclinY(h) = molecular target: T34, CDK18/cyclinY(h) (Homo sapiens, UniProt Q07002)
# T34 construct: purchased Eurofins Discovery Services (KinaseProfiler)
# Outline: as §1
# SIK3(h) = molecular target: T35, SIK3(h) (Homo sapiens, UniProt Q9Y2K2)
# T35 construct: purchased Eurofins Discovery Services (KinaseProfiler)
# Outline: as §1
# CDK14/cyclinY(h) = molecular target: T36, CDK14/cyclinY(h) (Homo sapiens, UniProt O94921)
# T36 construct: purchased Eurofins Discovery Services (KinaseProfiler)
# Outline: as §1
# GRK2(h) = molecular target: T37, GRK2(h) (Homo sapiens, UniProt P25098)
# T37 construct: purchased Eurofins Discovery Services (KinaseProfiler)
# Outline: as §1
# T1 sequence (Q8WTQ7 whole entry): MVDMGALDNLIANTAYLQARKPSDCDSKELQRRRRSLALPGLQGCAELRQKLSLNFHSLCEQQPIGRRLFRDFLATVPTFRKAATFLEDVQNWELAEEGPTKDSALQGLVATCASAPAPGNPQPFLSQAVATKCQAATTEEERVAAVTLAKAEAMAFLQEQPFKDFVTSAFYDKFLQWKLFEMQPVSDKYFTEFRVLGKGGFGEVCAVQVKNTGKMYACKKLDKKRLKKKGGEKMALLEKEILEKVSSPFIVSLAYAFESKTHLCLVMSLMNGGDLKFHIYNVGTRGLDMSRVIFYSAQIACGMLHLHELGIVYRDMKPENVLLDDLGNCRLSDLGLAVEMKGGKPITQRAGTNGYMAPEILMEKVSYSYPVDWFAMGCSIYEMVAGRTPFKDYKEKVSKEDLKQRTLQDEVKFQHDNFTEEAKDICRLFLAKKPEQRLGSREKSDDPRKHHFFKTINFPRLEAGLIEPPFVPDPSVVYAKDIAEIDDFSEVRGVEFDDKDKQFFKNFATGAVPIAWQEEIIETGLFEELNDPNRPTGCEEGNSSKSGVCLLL
smiles,measurement,setting,value
"COc1cc(OC)cc(N(CCN[C@H](C)CO)c2ccc3ncc(-c4cnn(C)c4)c(=O)n3c2)c1 [RK-019, (R)-7-((3,5-dimethoxyphenyl) (2-((1-hydroxypropan-2-yl)amino)ethyl)amino)-3-(1-methyl-1H-pyrazol-4-yl)-4H-pyrido [1,2-a]pyrimidin-4-one]",activity at 1 µM,GRK7(h),108%
same,activity at 1 µM,GCK(h),98%
same,activity at 1 µM,SIK(h),89%
same,activity at 1 µM,CaMKK2(h),95%
same,activity at 1 µM,JAK2(h),106%
same,activity at 1 µM,EphB2(h),96%
same,activity at 1 µM,DCAMKL2(h),126%
same,activity at 1 µM,TAO1(h),115%
same,activity at 1 µM,PAK6(h),96%
same,activity at 1 µM,HIPK3(h),94%
same,activity at 1 µM,PRP4(h),90%
same,activity at 1 µM,PEK(h),85%
same,activity at 1 µM,MRCKγ(h),94%
same,activity at 1 µM,CRIK(h),117%
same,activity at 1 µM,SAPK2a(h),100%
same,activity at 1 µM,CDK3/cyclinE(h),90%
same,activity at 1 µM,NUAK2(h),90%
same,activity at 1 µM,PAK5(h),101%
same,activity at 1 µM,ULK3(h),91%
same,activity at 1 µM,Fes(h),106%
same,activity at 1 µM,EphB3(h),89%
same,activity at 1 µM,NEK9(h),91%
same,activity at 1 µM,TAF1L(h),100%
same,activity at 1 µM,PRKG2(h),100%
same,activity at 1 µM,Ret(V804M)(h),56%
same,activity at 1 µM,CLIK1(h),102%
same,activity at 1 µM,DRAK2(h),96%
same,activity at 1 µM,GRK5(h),135%
same,activity at 1 µM,Met(Y1248H)(h),113%
same,activity at 1 µM,PKA(h),94%
same,activity at 1 µM,PASK(h),96%
same,activity at 1 µM,CK1γ1(h),92%
same,activity at 1 µM,mTOR/FKBP12(h),92%
same,activity at 1 µM,CDK18/cyclinY(h),96%
same,activity at 1 µM,SIK3(h),104%
same,activity at 1 µM,CDK14/cyclinY(h),91%
same,activity at 1 µM,GRK2(h),103%

# — publication PMC9532703, “A novel small molecule RK-019 inhibits FGFR2-amplification gastric cancer cell proliferation and induces apoptosis in vitro and in vivo” (Frontiers in Pharmacology, 2022)
